Assay results from patent US8722930B2, “Protease inhibitors” (Orion Corporation, priority 2009, dated 2014).
Where two headings read alike, the source gives them in different places.

Experiments:
Factor Xa = molecular target: T1, Factor Xa (Homo sapiens, UniProt P00742); assay: Factor Xa enzymatic assay (selectivity screening); format: biochemical; settings: for Factor Xa Inhibition (%): % Inhibition at 5 μM
T1 construct: uPA, Factor Xa, thrombin, plasmin and trypsin (Sigma, USA); purchased Sigma, USA
T1 sequence (P00742 235-488 limits assumed): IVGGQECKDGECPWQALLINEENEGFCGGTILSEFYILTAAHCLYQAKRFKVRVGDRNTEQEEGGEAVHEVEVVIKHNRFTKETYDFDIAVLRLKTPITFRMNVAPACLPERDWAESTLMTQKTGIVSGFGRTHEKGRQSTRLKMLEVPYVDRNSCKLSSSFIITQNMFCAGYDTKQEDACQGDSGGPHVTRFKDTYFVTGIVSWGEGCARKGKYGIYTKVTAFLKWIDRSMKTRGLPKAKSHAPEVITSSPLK
T1 sequence (P00742 41-179 partner limits assumed): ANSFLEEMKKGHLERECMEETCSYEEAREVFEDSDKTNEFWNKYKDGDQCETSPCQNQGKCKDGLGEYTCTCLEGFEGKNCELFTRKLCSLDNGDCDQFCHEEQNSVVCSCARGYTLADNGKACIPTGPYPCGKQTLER
Text: (§1) Purified recombinant matriptase was used in a fluorescence-based screening assay using Gln-Ala-Arg peptide as a substrate. In this assay the cleavage of AMC from Boc-Gln-Ala-Arg-7-amido-4 methylcoumarin hydrochloride (Boc-Gln-Ala-Arg-AMC) (Sigma, USA) was monitored by measuring the increase in fluorescence intensity of AMC released upon proteolytic cleavage at 480 nm (kex=360 nm). Similarly, enzymatic assays in fluorimetric or colorimetric format for uPA, Factor Xa, thrombin, plasmin and trypsin (Sigma, USA) were established using substrates pyroGlu-Gly-Arg-pNA.HCl, Boc-Gln-Ala-Arg-AMC, CH3OCO-D-CHA-Gly-Arg-PNA.AcoH, Pyro Glu-Phe-Lys—pNA.HCl and Boc-Gln-Ala-Arg-AMC, respectively.

DU145 cells [1] = assay: Cytotoxicity, Calcein AM assay, DU145; format: cell-based; settings: four days of incubation; for viability at 10 µM: Homo sapiens, DU-145, 96 h, read-out: Cell survival at 10 μM (%)
Description: Cytotoxicity of the compounds was tested in cell lines or primary cells using Calcein AM assay. This assay measures cell viability by quantitation of cleaved fluorescent product of a cell permeable substrate that is retained in the cytoplasm of cells with uncompromised cytoplasmic membrane integrity. The cells were seeded into 96-well plate and allowed to adhere for a day followed by addition of compound at several different concentrations. After four days of incubation with the compound, media was removed from the cells followed by addition of PBS and addition of Calcein AM reagent at 1 μM final concentration. The cells were then allowed to incubate at 37° C. for half an hour followed by reading on the fluorimeter. Percent viability was calculated based on fluorescence value obtained at 485/520 nm with cut off at 495 nm.

uPA = molecular target: T2, uPA (Homo sapiens, UniProt P00749); assay: uPA enzymatic assay (selectivity screening); format: biochemical; settings: for uPA Inhibition (%): % Inhibition at 5 μM
T2 construct: purchased Sigma, USA
Text: as §1

DU145 cells [2] = assay: Migration assay in transwell chambers; format: cell-based; settings: for inhibition at 10 µM: Homo sapiens, DU-145, 24 hours
Description: Migration assays were performed to determine the effect of matriptase inhibitors on cell motility. Cells were seeded with 10 μM test compound into transwell chambers and allowed to migrate for 24 hours using a combination of 10% FBS and 5 μg/ml fibronectin as chemoattractant.

plasmin = molecular target: T3, plasmin (Homo sapiens, UniProt P00747); assay: Plasmin enzymatic assay (selectivity screening); format: biochemical; settings: for Plasmin Inhibition (%): % Inhibition at 5 μM
T3 construct: uPA, Factor Xa, thrombin, plasmin and trypsin (Sigma, USA); purchased Sigma, USA
T3 sequence (P00747 581-810 limits assumed, species assumed): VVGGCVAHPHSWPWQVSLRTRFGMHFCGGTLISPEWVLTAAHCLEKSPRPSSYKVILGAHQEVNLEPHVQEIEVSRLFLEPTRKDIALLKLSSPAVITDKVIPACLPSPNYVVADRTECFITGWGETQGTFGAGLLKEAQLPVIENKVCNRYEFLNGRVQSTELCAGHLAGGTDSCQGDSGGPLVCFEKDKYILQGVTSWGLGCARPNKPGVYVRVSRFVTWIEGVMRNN
T3 sequence (P00747 97-580 partner limits assumed, species assumed): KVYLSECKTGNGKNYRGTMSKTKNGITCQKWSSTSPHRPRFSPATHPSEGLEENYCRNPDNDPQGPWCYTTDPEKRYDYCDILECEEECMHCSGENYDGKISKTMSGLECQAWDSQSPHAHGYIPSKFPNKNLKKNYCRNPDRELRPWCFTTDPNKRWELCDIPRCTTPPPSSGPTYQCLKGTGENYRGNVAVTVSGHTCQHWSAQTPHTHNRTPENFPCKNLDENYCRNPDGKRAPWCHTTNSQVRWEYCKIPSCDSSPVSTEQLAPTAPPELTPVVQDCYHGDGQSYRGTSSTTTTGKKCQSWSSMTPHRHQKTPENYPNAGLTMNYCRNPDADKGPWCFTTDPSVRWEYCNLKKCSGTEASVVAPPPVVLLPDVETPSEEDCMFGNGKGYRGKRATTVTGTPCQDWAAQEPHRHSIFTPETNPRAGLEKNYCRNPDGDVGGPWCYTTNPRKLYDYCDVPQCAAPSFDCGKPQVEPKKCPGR
Text: as §1

[3] = molecular target: T4, Purified recombinant matriptase (Homo sapiens, UniProt Q9Y5Y6); assay: Matriptase fluorescence-based enzymatic assay (Boc-Gln-Ala-Arg-AMC cleavage); format: biochemical
T4 sequence (Q9Y5Y6 1-855): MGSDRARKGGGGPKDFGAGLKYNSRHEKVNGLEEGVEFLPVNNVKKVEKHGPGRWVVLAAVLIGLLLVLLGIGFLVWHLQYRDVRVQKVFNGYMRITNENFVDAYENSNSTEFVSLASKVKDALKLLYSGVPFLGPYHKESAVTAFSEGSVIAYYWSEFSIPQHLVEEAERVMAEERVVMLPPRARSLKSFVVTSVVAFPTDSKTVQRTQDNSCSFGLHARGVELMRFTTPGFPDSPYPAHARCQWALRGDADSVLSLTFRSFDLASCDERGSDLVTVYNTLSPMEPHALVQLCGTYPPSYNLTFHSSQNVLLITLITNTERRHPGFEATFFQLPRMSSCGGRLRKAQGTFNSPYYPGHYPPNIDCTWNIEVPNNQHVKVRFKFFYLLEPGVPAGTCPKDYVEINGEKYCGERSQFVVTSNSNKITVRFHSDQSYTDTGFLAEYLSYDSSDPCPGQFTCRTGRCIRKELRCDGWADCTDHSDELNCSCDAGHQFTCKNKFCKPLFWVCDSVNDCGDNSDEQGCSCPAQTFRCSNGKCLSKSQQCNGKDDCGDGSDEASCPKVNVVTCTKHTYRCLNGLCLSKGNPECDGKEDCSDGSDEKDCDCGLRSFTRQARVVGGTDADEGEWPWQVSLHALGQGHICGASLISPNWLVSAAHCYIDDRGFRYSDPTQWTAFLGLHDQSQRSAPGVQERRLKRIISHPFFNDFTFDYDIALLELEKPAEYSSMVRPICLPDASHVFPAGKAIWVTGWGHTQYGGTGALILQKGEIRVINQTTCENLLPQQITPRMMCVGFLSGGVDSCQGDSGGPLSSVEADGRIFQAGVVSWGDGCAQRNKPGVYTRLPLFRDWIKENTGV
Text: as §1

thrombin = molecular target: T5, thrombin (Homo sapiens, UniProt P00734); assay: Thrombin enzymatic assay (selectivity screening); format: biochemical; settings: for Thrombin Inhibition (%): % Inhibition at 5 μM
T5 construct: uPA, Factor Xa, thrombin, plasmin and trypsin (Sigma, USA); purchased Sigma, USA
Text: as §1

DU145 cells [4] = assay: Cell invasion assay (matrigel transwell); format: cell-based; settings: for inhibition at 10 µM: Homo sapiens, DU-145, 48 hours
Description: Cell invasion assays were done for quantitating the degree to which invasive cells penetrate a barrier essentially as in migration assay but with the use of matrigel consisting of basement membrane components in the transwell inserts and incubating for 48 hours. The barrier used was matrigel. This was followed by fixing and staining of the transwell insert with 0.5% crystal violet in 25% methanol in order to visualize cells migrated.

trypsin = assay: Trypsin enzymatic assay (selectivity screening); format: biochemical; settings: % Inhibition at 5 μM
Text: as §1

[5] = Table 1, read-out: Matriptase Inhibition IC50
[6] = Table 2, read-out: Matriptase IC50

Row | Compound | Factor Xa Inhibition (%) (Factor Xa) | Cell survival at 10 μM (%) (DU145 cells [1]) | uPA Inhibition (%) (uPA) | Inhibition of migration at 10 μM (%) (DU145 cells [2]; 24 hours) | Plasmin Inhibition (%) (plasmin) | IC50 [3, 5] | IC50 [3, 6] | Thrombin Inhibition (%) (thrombin) | Inhibition of invasion at 10 μM (%) (DU145 cells [4]; 48 hours) | Trypsin Inhibition (%) (trypsin) | inhibition at 5 µM (Factor Xa) | inhibition at 5 µM (uPA) | inhibition at 5 µM (plasmin) | inhibition at 5 µM (thrombin) | viability at 10 µM (DU145 cells [1]) | inhibition at 10 µM (DU145 cells [2]) | inhibition at 10 µM (DU145 cells [4])
1 | 1-[3,5-Bis-(4-carbanimidoyl-phenoxy)-benzoyl]-nonahydro-quinoline [Example 35] | 69% | 78% | 10% | 18% | 69% | 0.313 µM | 0.312 µM | 67% | 75% |  |  |  |  |  |  |  | 
2 | 2-[3,5-Bis-(4-carbanimidoyl-phenoxy)-benzoyl]-nonahydro-isoquinoline [Example 37] | 67% |  | 13% |  | 65% | 0.479 µM |  | 74% |  | 84% |  |  |  |  |  |  | 
3 | N=C(N)c1ccc(Oc2cc(Oc3ccc(C(=N)N)cc3)cc(C(=O)N3CCN(CCN)CC3)c2)cc1 [Example 31, 2-{4-[3,5-Bis-(4-carbamimidoyl-phenoxy)-benzoyl]-piperazin-1-yl}-ethylamine] |  |  |  |  |  | 0.088 µM |  |  |  |  | 94% | 5% | 40% | 61% |  |  | 
4 | N=C(N)c1ccc(Oc2cc(OCc3cccc(C(=N)N)c3)cc(C(=O)NC3CCC(N)CC3)c2)cc1 (stereo not shown) [Example 42, N-(4-Aminocyclohexyl)-3-(3-carbamimidoylbenzyloxy)-5-(4-carbamimidoylphenoxy)benzamide] |  |  |  |  |  | 0.01 µM |  |  |  |  | 93% | 11% | 30% | 36% |  |  | 
5 | N=C(N)c1ccc(COc2cc(Oc3ccc(C(=N)N)cc3)cc(C(=O)NC3CCC(N)CC3)c2)cc1 (stereo not shown) [Example 43, N-(4-Aminocyclohexyl)-3-(4-carbamimidoylbenzyloxy)-5-(4-carbamimidoylphenoxy)benzamide] |  |  |  |  |  | 0.016 µM |  |  |  |  | 76% | 7% | 33% | 45% |  |  | 
6 | N=C(N)c1ccc(Oc2cc(OCc3ccc(CN)cc3)cc(C(=O)NC3CCC(N)CC3)c2)cc1 (stereo not shown) [Example 45, N-(4-Aminocyclohexyl)-3-(4-aminomethylbenzyloxy)-5-(4-carbamimidoylphenoxy)benzamide] |  |  |  |  |  | 0.048 µM |  |  |  |  | 47% | 6% | 21% | -12% |  |  | 
7 | N=C(N)c1ccc(Oc2cc(OCc3cccc(C(=N)N)c3)cc(C(=O)N3CCC(CCN)CC3)c2)cc1 [Example 57, 2-{1-[3-(3-Carbamimidoyl-benzyloxy)-5-(4-carbamimidoyl-phenoxy)-benzoyl]-piperidin-4-yl}-ethylamine] |  |  |  |  |  | 0.029 µM |  |  |  | 74% | 94% | 10% | 50% | 57% |  |  | 
8 | N=C(N)CCCCOc1cc(Oc2ccc(C(=N)N)cc2)cc(C(=O)NC2CCC(N)CC2)c1 (stereo not shown) [Example 65, N-(4-Aminocyclohexyl)-3-(4-carbamimidoylbutoxy)-5-(4-carbamimidoyl-phenoxy)-benzamide] |  |  |  |  |  | 0.0168 µM | 0.016 µM |  |  |  | 63% | 4% | 5% | 27% | 96% | 7% | 88%
9 | N=C(N)CCCCCOc1cc(Oc2ccc(C(=N)N)cc2)cc(C(=O)NC2CCC(N)CC2)c1 (stereo not shown) [Example 66, N-(4-Aminocyclohexyl)-3-(5-carbamimidoylpentyloxy)-5-(4-carbamimidoyl-phenoxy)-benzamide] |  |  |  |  |  | 0.0161 µM | 0.016 µM |  |  |  | 43% | 3% | 5% | 21% | 87% | 88% | 95%
10 | N=C(N)c1ccc(Oc2cc(Oc3ccc(C(=N)N)cc3Cl)cc(C(=O)NC3CCC(N)CC3)c2)cc1 (stereo not shown) [Example 69, N-(4-Aminocyclohexyl)-3-(4-carbamimidoyl-2-chlorophenoxy)-5-(4-carbamimidoylphenoxy)benzamide] |  |  |  |  |  | 0.0189 µM |  |  |  |  | 81% | 9% | 22% | 26% |  |  | 
11 | N=C(N)c1cccc(COc2cc(OCc3cccc(C(=N)N)c3)cc(C(=O)NC3CCC(N)CC3)c2)c1 (stereo not shown) [Example 77, N-(4-Aminocyclohexyl)-3,5-bis-(3-carbamimidoyl Benzyloxy)benzamide] |  |  |  |  |  | 0.005 µM |  |  |  |  | 96% | 11% | 22% | 76% |  |  | 
12 | N=C(N)c1ccc(Oc2cc(Oc3ccc(CN)cc3)cc(C(=O)NC3CCC(N)CC3)c2)cc1 (stereo not shown) [Example 84, N-(4-Aminocyclohexyl)-3-(4-aminomethylphenoxy)-5-(4-carbamimidoylphenoxy)benzamide] |  |  |  |  |  | 0.0634 µM | 0.063 µM |  |  |  | 5% | 5% | 10% | 36% | 100% | 80% | 92%
13 | N=C(N)c1cc(F)c(Oc2cc(Oc3ccc(CN)cc3)cc(C(=O)NC3CCC(N)CC3)c2)c(F)c1 (stereo not shown) [Example 87, N-(4-Amino-cyclohexyl)-3-(4-aminomethyl-phenoxy)-5-(4-carbamimidoyl-2,6-difluoro-phenoxy)-benzamide] |  |  |  |  |  |  | 0.158 µM |  |  |  |  |  |  |  | 113% | 47% | 88%
14 | N=C(N)c1ccc(Oc2cc(Oc3ccc(C(=N)N)cc3)cc(C(=O)OC3CCC(N)CC3)c2)cc1 (stereo not shown) [Example 103, 3,5-Bis-(4-carbamimidoyl-phenoxy)-benzoic acid 4-amino-cyclohexyl Ester] |  |  |  |  |  | 0.002 µM |  |  |  | 92% | 92% | 25% | 58% | 44% |  |  | 
15 | N=C(N)c1ccc(Oc2cc(NC(=O)[C@H]3CC[C@H](N)CC3)cc(Oc3ccc(C(=N)N)cc3)c2)cc1 [Example 108, Trans-4-amino-cyclohexanecarboxylic Acid[3,5-bis-(4-carbamimidoyl-phenoxy)-phenyl]-amide] | 81% |  | 23% |  | 61% | 0.004 µM |  | 49% |  | 76% |  |  |  |  |  |  | 
16 | N=C(N)c1ccc(Oc2cc(NC(=O)C3CCN(CCO)CC3)cc(Oc3ccc(C(=N)N)cc3)c2)cc1 [Example 111, 1-(2-Hydroxy-ethyl)-piperidine-4-carboxylic acid[3,5-bis-(4-carbamimidoyl-phenoxy)-phenyl]-amide] | 74% |  | 17% |  | 46% | 0.029 µM |  | 44% |  | 63% |  |  |  |  |  |  | 
